The test system of data set [1] is patients with relapsed multiple myeloma. Nature of the data set: Randomized, double-blind, placebo-controlled, multicenter study (PANORAMA-1) of panobinostat plus bortezomib and dexamethasone. It counts as in vivo. On the procedure:
Treatment was administered for a maximum of 16 cycles (48 weeks).
Demographics and baseline disease characteristics were balanced between arms. The median age was 63 years (range 28 to 84); 42% of patients were older than 65 years; 53% of patients were male. The ECOG (Eastern Cooperative Oncology Group) performance status was 0 to 1 in 93% of patients. The median number of prior therapies was 1; 48% of patients received 2 or 3 prior lines of therapy. More than half (57%) of the patients had prior stem cell transplantation. The most common prior antineoplastic therapies were corticosteroids (90%), melphalan (80%), thalidomide (53%), cyclophosphamide (47%), bortezomib (44%), and lenalidomide (19%). The median duration of follow-up was 29 months in both arms.
The primary endpoint was progression-free survival (PFS), using modified European Bone Marrow Transplant Group (EBMT) criteria, as assessed by the investigators. […] The efficacy and safety in a subgroup analysis of 193 patients who had received prior treatment with both bortezomib and an immunomodulatory agent and a median of 2 prior therapies as the benefit: risk appeared to be greater in this more heavily pretreated population than in the overall trial population. Of these 193 patients, 76% of them had received ≥2 prior lines of therapy.

Data set [2] deals with cardiac ventricular repolarization (QT interval). Nature of the data set: Pooled clinical data from over 500 patients treated with single agent panobinostat: QTc prolongation. Type of data set: in vivo, human. From the text: Panobinostat may prolong cardiac ventricular repolarization (QT interval).

Consider 1 compound from patent publication US20200093795A1 (Secura Bio, Inc., priority 2015, published 2020).

Take `Cc1[nH]c2ccccc2c1CCNCc1ccc(/C=C/C(=O)NO)cc1` [panobinostat]: the serious toxicities observed result in data set [1] (PANORAMA clinical study, patients receiving panobinostat) was “severe and fatal ischemic events, severe arrhythmias and ECG changes”. The gastrointestinal toxicity entry in data set [1] (in vivo) is recorded as “common”. In addition, the “incidence of CTC Grade 3 QTc prolongation (QTcF >500 msec)” value is listed as at least 5% in data set [2] (at a dose of 60 mg or higher) and “approximately 1%” in data set [2] (multiple indications, different dose levels, overall).
